Reference: US11795460B2, “Compositions and methods for TTR gene editing and treating ATTR amyloidosis” (Intellia Therapeutics, Inc., priority 2017, dated 2023)

How the values were obtained:
[1] = test system: TTR; assay: TTR editing in HEK293_Cas9 cells transfected with dgRNAs (Table 4); format: cell-based, human; conditions: HEK293_Cas9 cells (constitutively express Spy Cas9) transfected with dgRNAs
Outline: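 Percent editing, taken from amplicon NGS as the fraction of all reads carrying insertions, deletions or substitutions, was measured 24, 48 or 72 h after delivery. Delivery used RNAiMAX lipoplexes of 25 nM each crRNA and trRNA into HEK293 cells stably expressing Spy Cas9.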

[2] = test system: TTR; assay: TTR editing in HUH7 cells transfected with Spy Cas9 mRNA and dgRNAs (Table 5); format: cell-based, human; conditions: HUH7 cells co-transfected with Spy Cas9 mRNA (SEQ ID NO:2) and dgRNAs
Outline: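 Percent editing is the share of NGS reads at the TTR target carrying insertions, deletions or substitutions, from amplicon sequencing of genomic DNA harvested at 24, 48 or 72 h. HUH7 cells first received Cas9 mRNA (100 ng) by lipofection, then dual-guide RNA (crRNA and tracer, 25 nM each).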

[3] = test system: TTR; assay: TTR editing in HepG2 cells transfected with Spy Cas9 mRNA and dgRNAs (Table 6); format: cell-based, human; conditions: HepG2 cells co-transfected with Spy Cas9 mRNA (SEQ ID NO:2) and dgRNAs
Outline: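 Percent editing is the share of sequencing reads at the TTR target locus that carry insertions, deletions or substitutions, measured by Illumina amplicon sequencing aligned to hg38. Samples came from HepG2 cells lipofected first with 100 ng Cas9 mRNA and then with dual-guide RNA (25 nM crRNA/tracer), collected 24–72 h later.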

[4] = test system: TTR; assay: TTR editing in primary human hepatocytes transfected with Spy Cas9 protein (RNP) loaded with dgRNAs (Table 8); format: cell-based; conditions: dgRNA transfected with Spy Cas9 protein (RNP)
Outline: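 Primary human hepatocytes were lipofected (RNAiMAX) with RNP of Spy Cas9 (10 nM) plus pre-annealed crRNA (10 nM) and trRNA (10 nM) and harvested 24, 48 or 72 h later. Target-site amplicons were sequenced on Illumina MiSeq and aligned to hg38; percent editing = reads with indels or substitutions over total reads.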

Row | Sequence | Avg % Deletion [1] [%] | Avg % Edit [1] [%] | Avg % Insert [1] [%] | Avg % Deletion [2] [%] | Avg % Edit [2] [%] | Avg % Insert [2] [%] | Avg % Deletion [3] [%] | Avg % Edit [3] [%] | Avg % Insert [3] [%] | Avg % Deletion [4] [%] | Avg % Edit [4] [%] | Avg % Insert [4] [%]
1 | AUGCAGCUCUCCAGACUCAC (tested as dual guide RNA, chemistry not given here) [CR003358] | 4.14 | 5.44 | 1.29 | 26.60 | 36.50 | 10.53 | 7.27 | 35.93 | 28.66 | 5.67 | 31.62 | 25.95
2 | AGUCCCUCAUUCCUUGGGAU (tested as dual guide RNA, chemistry not given here) [CR003392] | 20.82 | 21.67 | 0.85 | 26.98 | 28.37 | 1.93 | 0.33 | 14.64 | 14.32 | 0.14 | 10.07 | 9.93
3 | AGCCUUUCUGAACACAUGCA (tested as dual guide RNA, chemistry not given here) [CR003351] | 21.24 | 49.67 | 28.42 | 27.49 | 63.51 | 36.87 | 25.57 | 57.54 | 31.98 | 16.36 | 40.28 | 23.92
4 | AAAGUUCUAGAUGCUGUCCG (tested as dual guide RNA, chemistry not given here) [CR003346] | 15.30 | 48.33 | 33.03 | 6.97 | 18.07 | 13.17 | 0.05 | 0.13 | 0.07 | 1.84 | 4.11 | 2.27
5 | UCUAGAACUUUGACCAUCAG (tested as dual guide RNA, chemistry not given here) [CR003345] | 16.01 | 35.02 | 19.00 | 32.18 | 72.43 | 41.33 | 4.45 | 10.58 | 6.12 | 7.91 | 28.90 | 21.00
6 | UGGACUGGUAUUUGUGUCUG (tested as dual guide RNA, chemistry not given here) [CR003340] | 14.50 | 42.38 | 27.88 | 14.23 | 46.93 | 33.33 | 31.65 | 37.76 | 6.12 | 4.50 | 10.44 | 5.94
7 | CAGAGGACACUUGGAUUCAC (tested as dual guide RNA, chemistry not given here) [CR003343] | 19.53 | 24.36 | 4.82 | 66.97 | 76.13 | 9.58 | 5.36 | 45.41 | 40.05 | 1.63 | 43.25 | 41.61
8 | CUGGUAUUUGUGUCUGAGGC (tested as dual guide RNA, chemistry not given here) [CR003341] | 13.31 | 20.04 | 6.73 | 13.20 | 20.58 | 7.78 | 5.66 | 15.60 | 9.94 | 5.02 | 19.66 | 14.64
9 | UUUGACCAUCAGAGGACACU (tested as dual guide RNA, chemistry not given here) [CR003344] | 29.54 | 33.87 | 4.32 | 54.40 | 64.02 | 10.76 | 3.62 | 33.43 | 29.81 | 4.48 | 35.45 | 30.97
10 | UGUAGAAGGGAUAUACAAAG (tested as dual guide RNA, chemistry not given here) [CR003365] | 24.61 | 36.43 | 11.83 | 43.82 | 60.68 | 17.77 | 11.11 | 46.88 | 35.77 | 7.54 | 47.78 | 40.24
11 | AGACACCAAAUCUUACUGGA (tested as dual guide RNA, chemistry not given here) [CR003367] | 18.67 | 47.11 | 28.44 | 33.48 | 66.29 | 33.62 | 21.27 | 45.55 | 24.28 | 15.13 | 31.19 | 16.06
12 | UACUCACCUCUGCAUGCUCA (tested as dual guide RNA, chemistry not given here) [CR003372] | 11.99 | 15.24 | 3.25 | 17.25 | 21.52 | 4.89 | 2.42 | 14.57 | 12.14 | 1.81 | 17.56 | 15.74
13 | GACGACAGCCGUGGUGGAAU (tested as dual guide RNA, chemistry not given here) [CR003388] | 17.82 | 19.23 | 1.41 | 56.45 | 59.48 | 3.88 | 1.56 | 9.33 | 7.76 | 1.05 | 5.43 | 4.38
14 | GCAUGGGCUCACAACUGAGG (tested as dual guide RNA, chemistry not given here) [CR003362] | 8.41 | 9.90 | 1.48 | 23.76 | 26.43 | 3.43 | 0.94 | 17.44 | 16.50 | 0.56 | 11.65 | 11.10
15 | GGAGUAGGGGCUCAGCAGGG (tested as dual guide RNA, chemistry not given here) [CR003382] | 25.49 | 29.95 | 4.46 | 34.47 | 34.47 | 0.14 | 0.15 | 1.73 | 1.58 | 0.15 | 2.44 | 2.28
16 | CUGCUCCUCCUCUGCCUUGC (tested as dual guide RNA, chemistry not given here) [CR003335] | 21.87 | 26.59 | 4.73 | 27.57 | 31.95 | 4.62 | 4.23 | 37.19 | 32.96 | 1.63 | 51.14 | 49.51
17 | AUACCAGUCCAGCAAGGCAG (tested as dual guide RNA, chemistry not given here) [CR003338] | 47.66 | 52.42 | 4.76 | 67.06 | 75.64 | 10.22 | 2.60 | 68.00 | 65.40 | 2.22 | 61.34 | 59.13
